Assay results taken from the supplement of paper PMC10331698.
± gives the standard deviation of the averaged measurements.

What was measured:
Test in all cases: LOEC (log10 uM (lowest observed effect concentration))
Perfluorooctanoic acid = compound: O=C(O)C(F)(F)C(F)(F)C(F)(F)C(F)(F)C(F)(F)C(F)(F)C(F)(F)F [Perfluorooctanoic acid]
Experimental: (§1)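 BioMAP Diversity Plus panel in human primary cell co-cultures, 4 concentrations in duplicate blinded samples. Responses are log10 fold change versus DMSO control, processed with tcpl v2.1.0. A hit is called when responses at any concentration exceed the cutoff (the larger of 3*bmad or log10(1.2)); the lowest observed effect concentration (modl_ga, log10 uM) is reported for hits.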

[1] = compound: O=P(O)(O)CCC(F)(F)C(F)(F)C(F)(F)C(F)(F)C(F)(F)C(F)(F)F [2-(Perfluorohexyl)ethylphosphonic acid]
Experimental: as §1

[2] = compound: OCCCC(F)(F)C(F)(F)C(F)(F)C(F)(F)C(F)(F)C(F)(F)C(F)(F)C(F)(F)F [3-(Perfluorooctyl)propanol]
Experimental: as §1

Perfluoropinacol = compound: OC(C(F)(F)F)(C(F)(F)F)C(O)(C(F)(F)F)C(F)(F)F [Perfluoropinacol]
Experimental: as §1

[3] = compound: FC(F)(I)C(F)(F)C(F)(F)C(F)(F)C(F)(F)C(F)(F)I [1,6-Diiodoperfluorohexane]
Experimental: as §1

[4] = compound: O=C(CC(=O)C(F)(F)C(F)(F)C(F)(F)F)c1cccs1 [(Perfluorobutyryl)-2-thenoylmethane]
Experimental: as §1

[5] = compound: C=CC(=O)OCCC(F)(F)C(F)(F)C(F)(F)C(F)(F)C(F)(F)C(F)(F)C(F)(F)C(F)(F)F [8:2 Fluorotelomer acrylate]
Experimental: as §1

[6] = compound: OCCC(F)(F)C(F)(F)C(F)(F)C(F)(F)C(F)(F)C(F)(F)C(F)(F)C(F)(F)F [8:2 Fluorotelomer alcohol]
Experimental: as §1

[7] = compound: C=CC(=O)OCC(F)(F)C(F)(F)C(F)(F)C(F)(F)COC(=O)C=C [1H,1H,6H,6H-Perfluorohexane-1,6-diol diacrylate]
Experimental: as §1

[8] = compound: OCC(F)(F)C(F)(F)C(F)(F)C(F)(F)C(F)(F)C(F)(F)C(F)(F)C(F)(F)CO [1H,1H,10H,10H-Perfluorodecane-1,10-diol]
Experimental: as §1

[9] = compound: Cc1ccc(S(=O)(=O)OCC(F)(F)C(F)(F)C(F)(F)C(F)(F)C(F)(F)C(F)F)cc1 [1H,1H,7H-Perfluoroheptyl 4-methylbenzenesulfonate]
Experimental: as §1

[10] = compound: FC(F)(F)C(F)(F)C(F)(F)C(F)(F)CCI [1H,1H,2H,2H-Perfluorohexyl iodide]
Experimental: as §1

[11] = compound: C=CC(=O)OCC(F)(F)C(F)(F)C(F)(F)C(F)(F)C(F)(F)C(F)(F)C(F)(F)C(F)F [1H,1H,9H-Perfluorononyl acrylate]
Experimental: as §1

Methotrexate = compound: CN(Cc1cnc2nc(N)nc(N)c2n1)c1ccc(C(=O)N[C@@H](CCC(=O)O)C(=O)O)cc1 [Methotrexate]
Experimental: as §1

[12] = compound: OCC(F)(F)C(F)(F)C(F)(F)C(F)(F)C(F)(F)C(F)(F)C(F)(F)C(F)(F)C(F)(F)C(F)(F)C(F)(F)F [11:1 Fluorotelomer alcohol]
Experimental: as §1

## hDFCGF Proliferation up
Perfluorooctanoic acid
  LOEC (log10 uM): 1.3
[1]
  LOEC (log10 uM): 1.78

## KF3CT MMP9 down
[2]
  LOEC (log10 uM): 1.3
Perfluoropinacol
  LOEC (log10 uM): 1.78
[3]
  LOEC (log10 uM): 0.845
[4]
  LOEC (log10 uM): 0.845
[5]
  LOEC (log10 uM): 1.54 ± 0.34
[6]
  LOEC (log10 uM): 1.07 ± 0.32
[7]
  LOEC (log10 uM): 1.3

## KF3CT IL8 down
[2]
  LOEC (log10 uM): 1.3
[3]
  LOEC (log10 uM): 1.07 ± 0.32
[8]
  LOEC (log10 uM): 1.78
[5]
  LOEC (log10 uM): 1.54 ± 0.34
[7]
  LOEC (log10 uM): 1.3
[9]
  LOEC (log10 uM): 1.3

## SAg Proliferation down
[2]
  LOEC (log10 uM): 1.3
[10]
  LOEC (log10 uM): 1.78
Perfluoropinacol
  LOEC (log10 uM): 1.3
[3]
  LOEC (log10 uM): 1.3
[11]
  LOEC (log10 uM): 1.3
[4]
  LOEC (log10 uM): 0.845
Methotrexate
  LOEC (log10 uM): 0.477
[12]
  LOEC (log10 uM): -0.96 ± 0.37
[6]
  LOEC (log10 uM): 1.3
[7]
  LOEC (log10 uM): 0.845
